Earlier results in patent US20040052855A1, “Microparticles of biodegradable polymer encapsulating a biologically active substance and sustained release pharmaceutical formulations containing same” (priority 2003, published 2004).

Details: in water at 20-25° C.

Row | Structure (SMILES) | solubility in water
1 | ClCCl [dichloromethane] | 1.32 % (by weight)
2 | CCOC(C)=O [ethyl acetate] | 8.70 % (by weight)
